US6613718B2, “Aryl ether derivatives and processes for their preparation and herbicidal and desiccant compositions containing them” (Ishihara Sangyo Kaisha, Ltd., priority 2001, dated 2003)

Experiments:
Format in all cases: in vivo
Settings in all cases: 14 days after application
[1] = tested on: johnsongrass (Sorghum halepense, SORHA); test: Pre-emerge greenhouse herbicide activity screening, phytotoxicity rating
Method in brief: (§1)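 Ratings taken 14 days after treatment on a 0–100 scale, 100 meaning complete plant death. Post-emerge: 2-3 leaf plants, 0.25% v/v surfactant added; pre-emerge: seeds sown a day ahead, soil surface-watered after spraying. Rates 15–1000 g ai/ha in acetone, 187 l/ha.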

[2] = tested on: ivyleaf morningglory (Ipomoea hederacea, IPOHE); test: as above
Method in brief: as §1

[3] = tested on: large crabgrass (Digitaria sanguinalis, DIGSA); test: as above
Method in brief: as §1

[4] = tested on: lambsquarters (Chenopodium album, CHEAL); test: as above
Method in brief: as §1

[5] = tested on: sicklepod (Cassia obtusifolia, CASOB); test: as above
Method in brief: as §1

[6] = tested on: barnyardgrass (Echinochloa crus-galli, ECHCG); test: as above
Method in brief: as §1

[7] = tested on: velvetleaf (Abutilon theophrasti, ABUTH); test: as above
Method in brief: as §1

[8] = tested on: redroot pigweed (Amaranthus retroflexus, AMARE); test: as above
Method in brief: as §1

[9] = tested on: common ragweed (Ambrosia artemisiifolia L., AMBEL); test: as above
Method in brief: as §1

[10] = tested on: green foxtail (Setaria viridis, SETVI); test: as above
Method in brief: as §1

[11] = tested on: field corn (Zea mays L., var. Dekalb 535, CORN); test: Post-emerge greenhouse screening, crop safety / corn selectivity (phytotoxicity rating)
Method in brief: as §1

[12] = tested on: field corn (Zea mays L., var. Dekalb 535, CORN); test: Pre-emerge greenhouse screening, crop safety (phytotoxicity rating)
Method in brief: as §1

[13] = tested on: upland rice (Oryza sp., var.Tebonnet, RICE); test: as above
Method in brief: as §1

[14] = tested on: soybean (Glycine max L., var. Pella 86, SOY); test: as above
Method in brief: as §1

[15] = tested on: johnsongrass (Sorghum halepense, SORHA); test: Post-emerge greenhouse herbicide activity screening, phytotoxicity rating
Method in brief: as §1

[16] = tested on: ivyleaf morningglory (Ipomoea hederacea, IPOHE); test: as above
Method in brief: as §1

[17] = tested on: large crabgrass (Digitaria sanguinalis, DIGSA); test: as above
Method in brief: as §1

[18] = tested on: lambsquarters (Chenopodium album, CHEAL); test: as above
Method in brief: as §1

[19] = tested on: sicklepod (Cassia obtusifolia, CASOB); test: as above
Method in brief: as §1

[20] = tested on: barnyardgrass (Echinochloa crus-galli, ECHCG); test: as above
Method in brief: as §1

[21] = tested on: velvetleaf (Abutilon theophrasti, ABUTH); test: as above
Method in brief: as §1

[22] = tested on: redroot pigweed (Amaranthus retroflexus, AMARE); test: as above
Method in brief: as §1

[23] = tested on: common ragweed (Ambrosia artemisiifolia L., AMBEL); test: as above
Method in brief: as §1

[24] = tested on: green foxtail (Setaria viridis, SETVI); test: as above
Method in brief: as §1

[25] = tested on: upland rice (Oryza sp., var.Tebonnet, RICE); test: Post-emerge greenhouse screening, crop safety (phytotoxicity rating)
Method in brief: as §1

[26] = tested on: soybean (Glycine max L., var. Pella 86, SOY); test: as above
Method in brief: as §1

In the case of `Cn1nc(-c2cc(Oc3ncccn3)c(Cl)cc2F)c(=O)n(C)c1=S` [Compound 4-1, 6-[4-Chloro-2-fluoro-5-(2-pyrimidinyloxy)phenyl]-3,4-dihydro-2,4-dimethyl-3-thioxo-1,2,4-triazin-5(2H)-one], the “SORHA phytotoxicity rating (0-100 scale)” value ([1]; 125 g ai/ha) was 99, the “SORHA phytotoxicity rating (0-100 scale)” value ([1]; 250 g ai/ha) was 100 and the “IPOHE phytotoxicity rating (0-100 scale)” value ([2]; 125 g ai/ha) was 75. For the same compound, the “IPOHE phytotoxicity rating (0-100 scale)” value ([2]; 250 g ai/ha) was 100, the “DIGSA phytotoxicity rating (0-100 scale)” value ([3]; 125 g ai/ha) was 99 and the “DIGSA phytotoxicity rating (0-100 scale)” value ([3]; 250 g ai/ha) was 100. The “CHEAL phytotoxicity rating (0-100 scale)” value ([4]; 125 g ai/ha) was 100, the “CHEAL phytotoxicity rating (0-100 scale)” value ([4]; 250 g ai/ha) was 100 and the “CASOB phytotoxicity rating (0-100 scale)” value ([5]; 125 g ai/ha) was 50. The “CASOB phytotoxicity rating (0-100 scale)” value ([5]; 250 g ai/ha) was 60, the “ECHCG phytotoxicity rating (0-100 scale)” value ([6]; 125 g ai/ha) was 90 and the “ECHCG phytotoxicity rating (0-100 scale)” value ([6]; 250 g ai/ha) was 99. For the same compound, the “ABUTH phytotoxicity rating (0-100 scale)” value ([7]; 125 g ai/ha) was 65, the “ABUTH phytotoxicity rating (0-100 scale)” value ([7]; 250 g ai/ha) was 95 and the “AMARE phytotoxicity rating (0-100 scale)” value ([8]; 125 g ai/ha) was 100. For the same compound, the “AMARE phytotoxicity rating (0-100 scale)” value ([8]; 250 g ai/ha) was 100, the “AMBEL phytotoxicity rating (0-100 scale)” value ([9]; 125 g ai/ha) was 85 and the “AMBEL phytotoxicity rating (0-100 scale)” value ([9]; 250 g ai/ha) was 85. The “SETVI phytotoxicity rating (0-100 scale)” value ([10]; 125 g ai/ha) was 100, the “SETVI phytotoxicity rating (0-100 scale)” value ([10]; 250 g ai/ha) was 100 and the “CORN crop damage, phytotoxicity rating (0-100 scale)” value (from here on “CORN crop damage”) ([11]; 125 g ai/ha) was 5. The “CORN crop damage” value ([11]; 250 g ai/ha) was 15, the “CORN crop damage” value ([12]; 125 g ai/ha) was 0 and the “CORN crop damage” value ([12]; 250 g ai/ha) was 10. For the same compound, the “RICE crop damage, phytotoxicity rating (0-100 scale)” value (“RICE crop damage” below) ([13]; 125 g ai/ha) was 50, the “RICE crop damage” value ([13]; 250 g ai/ha) was 60 and the “SOY crop damage, phytotoxicity rating (0-100 scale)” value (shortened to “SOY crop damage”) ([14]; 125 g ai/ha) was 0. The “SOY crop damage” value ([14]; 250 g ai/ha) was 0, the “SORHA phytotoxicity rating (0-100 scale)” value ([15]; 125 g ai/ha) was 50 and the “SORHA phytotoxicity rating (0-100 scale)” value ([15]; 250 g ai/ha) was 75. The “IPOHE phytotoxicity rating (0-100 scale)” value ([16]; 125 g ai/ha) was 70, the “IPOHE phytotoxicity rating (0-100 scale)” value ([16]; 250 g ai/ha) was 70 and the “DIGSA phytotoxicity rating (0-100 scale)” value ([17]; 125 g ai/ha) was 50. For the same compound, the “DIGSA phytotoxicity rating (0-100 scale)” value ([17]; 250 g ai/ha) was 60, the “CHEAL phytotoxicity rating (0-100 scale)” value ([18]; 125 g ai/ha) was 99 and the “CHEAL phytotoxicity rating (0-100 scale)” value ([18]; 250 g ai/ha) was 100. For the same compound, the “CASOB phytotoxicity rating (0-100 scale)” value ([19]; 125 g ai/ha) was 55, the “CASOB phytotoxicity rating (0-100 scale)” value ([19]; 250 g ai/ha) was 55 and the “ECHCG phytotoxicity rating (0-100 scale)” value ([20]; 125 g ai/ha) was 55. For the same compound, the “ECHCG phytotoxicity rating (0-100 scale)” value ([20]; 250 g ai/ha) was 75, the “ABUTH phytotoxicity rating (0-100 scale)” value ([21]; 125 g ai/ha) was 99 and the “ABUTH phytotoxicity rating (0-100 scale)” value ([21]; 250 g ai/ha) was 100. The “AMARE phytotoxicity rating (0-100 scale)” value ([22]; 125 g ai/ha) was 100, the “AMARE phytotoxicity rating (0-100 scale)” value ([22]; 250 g ai/ha) was 100 and the “AMBEL phytotoxicity rating (0-100 scale)” value ([23]; 125 g ai/ha) was 30. The “AMBEL phytotoxicity rating (0-100 scale)” value ([23]; 250 g ai/ha) was 60, the “SETVI phytotoxicity rating (0-100 scale)” value ([24]; 125 g ai/ha) was 50 and the “SETVI phytotoxicity rating (0-100 scale)” value ([24]; 250 g ai/ha) was 60. For the same compound, the “RICE crop damage” value ([25]; 125 g ai/ha) was 0, the “RICE crop damage” value ([25]; 250 g ai/ha) was 15 and the “SOY crop damage” value ([26]; 125 g ai/ha) was 50. For the same compound, the “SOY crop damage” value ([26]; 250 g ai/ha) was 50.
